Test system: retinal neovascularization
Assay: rat pup model of retinopathy of prematurity (oxygen-induced retinopathy)
Format: in vivo
Details: for inhibition of retinal neovascularization: newborn rat pups exposed to varying oxygen
Procedure: Anecortave acetate was tested for its angiostatic efficacy in a rat pup model of retinopathy of prematurity (Penn, at al., Investigative Ophthalmology & Visual Science, “The Effect of an Angiostatic Steroid on Neovascularization in a Rat Model of Retinopathy of Prematurity,” Vol. 42(1):283-290, January 2001). Newborn rat pups were placed in an atmosphere of varying oxygen content. The rats received a single intravitreal injection of vehicle or anecortave acetate (500 μg) upon return to room air (day 14) or 2 days later (day 16). There was significant retinal neovascularization in the rats that received vehicle injections.

For `CC(=O)OCC(=O)[C@@]1(O)CC[C@H]2[C@@H]3CCC4=CC(=O)CC[C@]4(C)C3=CC[C@@]21C` [Anecortave acetate, 4,9(11)-pregnadien-17α,21-diol-3,20dione-21-acetate], the “preretinal neovascularization (neovascular score)” value (local administration, rat model of oxygen-induced retinopathy, FIG. 1) was “inhibits preretinal neovascularization”, the “inhibition of retinal neovascularization” value (single intravitreal injection 500 μg 2 days after return to room air (day 16)) was 50% and the “inhibition of retinal neovascularization” value (single intravitreal injection 500 μg upon return to room air (day 14)) was 66%.
